This note sets out measurements from patent US7291730B2, “Pyrimidine compounds and their use” (Sumitomo Chemical Company, Limited, priority 2000, dated 2007).

One may read the melting point as the temperature of the solid-liquid transition.

The first series relates to Western Flower Thrips (Frankliniella occidentalis). Briefly: Insecticidal test against western flower thrips, sprayed cucumber leaves (Test Example 3). The series is classed as in vivo. To be noted: 500 ppm, sprayed 20 ml/cup onto cucumber, thirty larvae on cut first foliage leaves, after 7 days. On the procedure:
A formulation of a test compound obtained in Formulation Example 5 was diluted with water so that the active ingredient concentration came to 500 ppm to prepare a test spray solution. The seeds of cucumber were planted in polyethylene cups and grown until their first foliage leaves developed, and the above test spray solution was sprayed at the rate of 20 ml/cup onto these cucumber plants. After the chemical solution sprayed onto the cucumber plants was dried, the first foliage leaves were cut off and placed on a water-containing filter paper (70 mm in diameter) in a polyethylene cup (110 mm in diameter). Thirty larvae of western flower thrips (Frankliniella occidentalis) were set free in the polyethylene cup, and the lid was put on the polyethylene cup. After 7 days, the number of surviving insects was examined.
Consider `CC#CCOc1cc(O[C@@H]2CCC[C@H]2C)ncn1` (relative stereo) [(169)], for which the “number of surviving insects” value was “zero”.
Still for that read-out and setting: the entry for `CC#CCOc1cc(OCC#CC)ncn1` [(1)] is “zero”; for `C#CCOc1cc(OCC#CC)ncn1` [(2)] it is “zero”.
On to `CCC#CCOc1cc(OCC#CCC)ncn1` [(3)], for which the “number of surviving insects” value is “zero”.
The same measure, in the same setting: the entry for `C#CCOc1cc(OCC#CCC)ncn1` [(5)] is “zero”; for `CC#CCOc1cc(OCC#CCC)ncn1` [(6)] it is “zero”.
Same read-out and setting: the value for `CC#CCOc1cc(OCC#CC(C)(C)C)ncn1` [(7)] was “zero”; that for `C#CCOc1cc(OCc2ccccc2)ncn1` [(13)] was “zero”.
On to `C#CCOc1cc(Oc2cccc(Cl)c2)ncn1` [(15)], for which the “number of surviving insects” value was “zero”.
On the same count and under the same terms, the value for `CC#CCOc1cc(Oc2ccc(F)cc2Cl)ncn1` [(16)] was “zero”; that for `C#CCOc1cc(Oc2cccc(C(F)(F)F)c2)ncn1` [(17)] was “zero”; that for `C#CCOc1cc(Oc2ccccc2Cl)ncn1` [(19)] was “zero”.
Consider `C#CCOc1cc(Oc2ccc(C(F)(F)F)cc2)ncn1` [(20)], for which the “number of surviving insects” value is reported as “zero”.
Still for that read-out and setting: the entry for `C#CCOc1cc(Oc2c(F)cccc2F)ncn1` [(21)] is “zero”.
The same measure, in the same setting: the entry for `C#CCOc1cc(Oc2cccc(C)c2)ncn1` [(29)] is “zero”.
Still for that read-out and setting: the entry for `CC#CCOc1cc(Oc2cc(F)ccc2F)ncn1` [(43)] is “zero”.
Take `CC#CCOc1cc(-c2ccc(F)cc2F)ncn1` [(44)]: the “number of surviving insects” value is on record as “zero”.
Same read-out and setting: the entry for `CC#CCOc1cc(Oc2c(F)cc(F)cc2F)ncn1` [(45)] is “zero”; for `C#CCOc1cc(Oc2ccccc2)ncn1` [(51)] it is “zero”; for `C#CCOc1cc(-c2ccccc2F)ncn1` [(54)] it is “zero”.
On to `CC#CCOc1cc(-c2ccccc2F)ncn1` [(55)], for which the “number of surviving insects” value is listed as “zero”.
In the case of `C#CCOc1cc(-c2ccc(F)cc2)ncn1` [(58)], the “number of surviving insects” value was “zero”.
The same measure, in the same setting: the value for `CC#CCOc1cc(-c2ccc(F)cc2)ncn1` [(59)] was “zero”; that for `CC#CCOc1cc(Oc2ccccc2F)ncn1` [(63)] was “zero”.
On the same count and under the same terms, the value for `C#CCOc1cc(-c2ccccc2)nc(C)n1` [(77)] was “zero”.
The same measure, in the same setting: the value for `CC#CCOc1cc(Cc2c(F)cccc2F)ncn1` [(80)] was “zero”.
For the molecule `C#CCOc1cc(-c2cccc(F)c2F)ncn1` [(82)], the “number of surviving insects” value was “zero”.
On to `CC#CCOc1cc(-c2cccc(F)c2F)ncn1` [(83)], for which the “number of surviving insects” value was “zero”.
Still for that read-out and setting: the entry for `CC#CCOc1cc(Cc2ccccc2F)ncn1` [(88)] is “zero”; for `C#CC(C)Oc1cc(-c2cccc(F)c2F)ncn1` (stereo not shown) [(134)] it is “zero”; for `C#CC(C)Oc1cc(-c2ccccc2F)ncn1` (stereo not shown) [(150)] it is “zero”.
Still for that read-out and setting: the value for `CC#CCOc1ncnc(Oc2cccc(F)c2F)c1F` [(180)] was “zero”; that for `CC#CCOc1cc(OC2CCCC(C)C2)ncn1` (stereo not shown) [(182)] was “zero”; that for `CC#CCOc1ncnc(Oc2ccccc2F)c1F` [(183)] was “zero”.
The same measure, in the same setting: the value for `CC#CCOc1ncnc(Oc2c(F)cccc2F)c1F` [(190)] was “zero”; that for `CC#CCOc1ncnc(Cc2ccccc2F)c1F` [(191)] was “zero”.

Test system in the next series: not given
Test: not given
Settings: not given
Turning to `CC#CCOc1cc(Cc2cccc(F)c2)ncn1` [present compound (100), 4-(2-butynyloxy)-6-(3-fluorobenzyl)pyrimidine], the melting point turned out to be 51.5 °C.
